Laboratory results taken from patent US20050154037A1, “Methods of using zonisamide as an adjunctive therapy for partial seizures” (Eisai Co., Ltd., priority 2004, published 2005).

What was measured:
[1] = design: species or system patients; conditions: human, in vivo
From the text: The pharmacovigilance data that were collected, reviewed and analyzed provided the following information in respect of the incidence of NMS. To date, a total of 3 cases (two adult and one pediatric) fulfill the criteria of potential neuroleptic malignant syndrome. These cases were reviewed in detail for evaluation of possible safety signals. They were all deemed serious, and in all cases, the patients recovered with appropriate treatment.
Cases ZON1000813 and ZON1000929 are adult cases from Japan. In both cases the patients carried a diagnosis of Parkinson's disease (PD) and were enrolled in a double blind, placebo controlled […] study of zonisamide as a potential treatment for PD (Protocol AD81 ON-202-1). […]
Estimates of exposure, based upon retail and mail order prescriptions, indicate that the number of unique patients taking zonisamide capsules in the U.S. is about 37,276 (total prescriptions per year/average number of prescriptions per patient per year less a calculated percentage decrease based on estimated annual dropouts) in the time between approval in 2000 and December 2002. […] Similarly, the incidences of NMS estimated herein are unlikely to be higher than calculated. Based on the exposure data and number of NMS cases, the incidence of NMS in the U.S. and Japan is calculated to be about 1:37,276 unique patients and 1:592,588 unique patients, respectively.

[2] = NMS case reports: onset of symptoms after cessation of zonisamide therapy; assay type: in vivo, patients; conditions: person with Parkinson's Disease
From the text: Cases ZON1000813 and ZON1000929 are adult cases from Japan. In both cases the patients carried a diagnosis of Parkinson's disease (PD) and were enrolled in a double blind, placebo controlled […] study of zonisamide as a potential treatment for PD (Protocol AD81 ON-202-1). In both cases the development of NMS appeared after the withdrawal of zonisamide (from 2 days to 14 days, respectively). In the former case, the study blind was broken, and the patient was documented to be on study medication (zonisamide), while in the second case, the blind was not broken. Case ZON1000926 is a spontaneous pediatric case from the US. In all of these cases there were weak or no confounding factors present.
A person carried a diagnosis of Parkinson's Disease (PD). The patient was enrolled in a double-blind, placebo controlled Phase II study designed to assess the potential utility of zonisamide in the treatment of PD. The patient's symptoms of NMS appeared 2 days after cessation of zonisamide therapy. Patients with PD are known to be at a rare, but increased risk for NMS. But NMS can occur spontaneously. See Ueda, et al., Neurology, Vol. 52, pp. 777-781, 1999.
A person carried a diagnosis of Parkinson's Disease (PD). The patient was enrolled in a double-blind, placebo controlled Phase II study designed to assess the potential utility of zonisamide in the treatment of PD. […]

[3] = tested on: sodium channels; conditions: in vitro; cited from earlier work
[4] = tested on: voltage-dependent, transient inward currents (T-type Ca^2+ currents); conditions: in vitro; cited from earlier work
[5] = tested on: GABA/benzodiazepine receptor ionophore complex; conditions: cited from earlier work
[6] = tested on: cultured mouse spinal cord neurons; conditions: 10-30 μg/mL, cited from earlier work
[7] = tested on: rat hippocampal slices; conditions: 10-30 μg/mL; cited from earlier work
[8] = tested on: dopaminergic and serotonergic neurotransmission; conditions: in vivo microdialysis; cited from earlier work
[9] = tested on: hepatic enzyme; conditions: cited from earlier work
[10] = tested on: carbonic anhydrase; conditions: relative to acetazolamide; called weak; cited from earlier work

**Q.** With `NS(=O)(=O)Cc1noc2ccccc12` [zonisamide, 1,2-benzisoxazole-3-methanesulfonamide] as the compound, how does the “cases that fulfill the criteria of potential neuroleptic malignant syndrome” value [1] read?
**A.** 3 cases

**Q.** And the “incidence of NMS” value [1]?
**A.** about 1:37,276 unique patients

**Q.** And the “appearance of NMS symptoms after cessation of zonisamide therapy” value ([2]; Phase II study (Example 1))?
**A.** 2 days

**Q.** What about the “appearance of NMS symptoms after cessation of study medication” value ([2]; Phase II study, blind not broken (Example 2)) of the same compound?
**A.** 14 days

**Q.** And the “effect on sodium channels” value [3]?
**A.** blocks sodium channels

**Q.** What about the “effect on voltage-dependent, transient inward currents (T-type Ca2+ currents)” value [4] of the same compound?
**A.** reduces

**Q.** What about the “changes in chloride flux” value [5] of the same compound?
**A.** does not produce changes in chloride flux

**Q.** What about the “binding to the GABA/benzodiazepine receptor ionophore complex” value ([5]; in an allosteric fashion) of the same compound?
**A.** binds

**Q.** What about the synaptically-driven electrical activity [6] of the same compound?
**A.** suppresses

**Q.** What about the “postsynaptic GABA or glutamate responses” value ([6]; cultured mouse spinal cord neurons) of the same compound?
**A.** without affecting

**Q.** What about the “neuronal or glial uptake of [3H]-GABA” value [7] of the same compound?
**A.** without affecting

**Q.** And the “dopaminergic and serotonergic neurotransmission” value [8]?
**A.** facilitates

**Q.** And the hepatic enzyme induction [9]?
**A.** not known to be a hepatic enzyme inducer

**Q.** What about the “carbonic anhydrase inhibition compared to acetazolamide” value [10] of the same compound?
**A.** 1/50
